Experimental data from article PMC8246065 (The EMBO Journal, 2021).
Read-outs that look alike come from different tables or passages of the source.

Experiments:
[1] = target: NOD2 (Homo sapiens, UniProt Q9HC29); assay: Microscale thermophoresis (MST) binding to purified NOD2-GFP
Method: The lysates were incubated with 2 ml GFP‐Trap agarose at 4°C for 4 h. The agarose was collected with Poly‐Prep columns by gravity flow. […] To remove heat shock proteins, columns were further washed with 50 ml wash buffer III (50 mM Tris–HCl, pH 7.5, 150 mM NaCl, 5 mM MgCl2+, 1 mM ATP). To elute the proteins, the agarose was mixed with 2 ml elution buffer (100 mM Glycine, pH 2.5) for 1 min and the eluted proteins were immediately neutralized with 0.2 ml of 1 M Tris, pH 10.5.

[2] = target: T1, NOD1 H517A (Homo sapiens, UniProt Q9Y239, H517A); assay: MST binding to purified NOD1 H517A-GFP
T1 construct: made in house
T1 sequence (Q9Y239 1-953 H517A): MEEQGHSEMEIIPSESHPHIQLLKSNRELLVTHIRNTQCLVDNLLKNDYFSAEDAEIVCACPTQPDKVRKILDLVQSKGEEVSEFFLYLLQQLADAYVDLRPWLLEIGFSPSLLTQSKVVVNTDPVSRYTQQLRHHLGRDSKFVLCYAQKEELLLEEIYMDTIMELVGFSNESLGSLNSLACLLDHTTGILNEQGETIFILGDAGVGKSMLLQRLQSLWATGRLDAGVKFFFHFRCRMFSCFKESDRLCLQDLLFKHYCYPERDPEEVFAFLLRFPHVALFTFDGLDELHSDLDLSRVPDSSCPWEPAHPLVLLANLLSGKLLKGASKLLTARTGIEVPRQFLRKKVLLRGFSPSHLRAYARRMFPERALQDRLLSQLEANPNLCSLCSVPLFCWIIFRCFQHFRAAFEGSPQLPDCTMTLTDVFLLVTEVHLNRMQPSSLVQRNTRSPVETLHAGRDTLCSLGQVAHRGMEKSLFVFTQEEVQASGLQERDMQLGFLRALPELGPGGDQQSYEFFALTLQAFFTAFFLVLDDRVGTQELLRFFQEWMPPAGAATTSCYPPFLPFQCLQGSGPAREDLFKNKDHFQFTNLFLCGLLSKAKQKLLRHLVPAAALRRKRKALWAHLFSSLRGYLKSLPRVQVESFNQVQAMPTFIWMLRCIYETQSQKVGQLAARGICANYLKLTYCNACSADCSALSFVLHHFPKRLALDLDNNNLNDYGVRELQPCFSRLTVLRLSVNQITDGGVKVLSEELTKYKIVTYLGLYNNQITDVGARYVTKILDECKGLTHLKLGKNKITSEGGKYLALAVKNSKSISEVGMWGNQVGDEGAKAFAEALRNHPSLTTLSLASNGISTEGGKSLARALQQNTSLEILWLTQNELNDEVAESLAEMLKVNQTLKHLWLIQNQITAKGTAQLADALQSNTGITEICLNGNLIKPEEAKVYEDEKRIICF
Method: The mutagenesis was performed with Q5® site‐directed mutagenesis kit (E0554, NEB) according to the manufacturer's instructions. The primers used in this study were as follows: NOD1 E157A F: 5′‐[…]gcg[…]‐3′, NOD1 E157A R: 5′‐[…]‐3′, NOD1 D161A F: 5′‐[…]gcg[…]‐3′, NOD1 D161A R: 5′‐[…]‐3′, NOD1 D203A F: 5′‐[…]gcg[…]‐3′, D203A R: 5′‐[…]‐3′, L218A F: 5′‐[…]gcg[…]‐3′, L218A R: 5′‐[…]‐3′, R237A F: 5′‐[…]gcg[…]‐3′, R237A R: 5′‐[…]‐3′, H257A F: 5′‐[…]gcg[…]‐3′, H257A R: 5′‐[…]‐3′, E267A F: 5′‐[…]gcg[…]‐3′, E267A R: 5′‐[…]‐3′, H290A F: 5′‐[…]gcg[…]‐3′, H290A R: 5′‐[…]‐3′, E306A F: 5′‐[…]gcg[…]‐3′, E306A R: 5′‐[…]‐3′, K324A F: 5′‐[…]gcg[…]‐3′, K324A R: 5′‐[…]‐3′, K328A F: 5′‐[…]gcg[…]‐3′, K328A R: 5′‐[…]‐3′, R340A F: 5′‐[…]gcg[…]‐3′, R340A R: 5′‐[…]‐3′, R344A F: 5′‐[…]gcg[…]‐3′, R344A R: 5′‐[…]‐3′, R350A F: 5′‐[…]gcg[…]‐3′, R350A R: 5′‐[…]‐3′, D372A F: 5′‐[…]gcg[…]‐3′, D372A R: 5′‐[…]‐3′, R373A F: 5′‐[…]gcg[…]‐3′, R373A R: 5′‐[…]‐3′, R399A F: 5′‐[…]gcg[…]‐3′, R399A R: 5′‐[…]‐3′, D423A F: 5′‐[…]gcg[…]‐3′, D423A R: 5′‐[…]‐3′, R435A F: 5′‐5′‐[…]gcg[…]‐3′, R435A R: 5′‐[…]‐3′, Q484A F: 5′‐[…]gcg[…]‐3′, Q484A R: 5′‐[…]‐3′, L495A F: 5′‐[…]gcg[…]‐3′, L495A R: 5′‐[…]‐3′, E514A F: 5′‐[…]gcg[…]‐3′, E514A R: 5′‐[…]‐3′, H517A F: 5′‐[…]gcg[…]‐3′, H517A R: 5′‐[…]‐3′, L540A F: 5′‐[…]gcg[…]‐3′, L540A R: 5′‐[…]‐3′, F544A F: 5′‐[…]gcg[…]‐3′, and F544A R: 5′‐[…]‐3′.

[3] = system: NOD1/2; assay: dSTORM imaging of HeLa NOD1 or NOD2 cells; format: cell-based, human; conditions: S1P 20 µM, 2 h
Method: For dSTORM, HeLa inducible NOD1‐GFP or NOD2‐GFP cells were grown on µ‐Slides with glass bottom (ibidi, Germany) and treated with doxycycline overnight to induce NOD1‐GFP or NOD2‐GFP expression. […] Then, cells were fixed with 4% (v:v) paraformaldehyde in PBS, pH 7.4 for 10 min at room temperature (RT). After washing twice with PBS, cells were incubated with 50 mM glycine in PBS, pH 7.4 for 10 min and permeabilized with 0.05% saponin (Sigma‐Aldrich, 47036), 1% BSA in PBS for 10 min. Rabbit anti‐GFP antibody (ChromoTek) and Alex Fluor 647‐conjugated goad anti‐rabbit antibody (Thermo Fisher Scientific) were diluted in PBS and incubated for 1 h at room temperature. The super resolution imaging was performed with Nanoimager S (Oxford Nanoimaging). For single particle tracking in live cells, Nanoimager S was pre‐warmed at 37°C. […] Medium was then replaced with fresh DMEM without phenol red. Live imaging was performed with Nanoimager S at acquisition speed of 100fps.

NOD2, sequence (Q9HC29 whole entry): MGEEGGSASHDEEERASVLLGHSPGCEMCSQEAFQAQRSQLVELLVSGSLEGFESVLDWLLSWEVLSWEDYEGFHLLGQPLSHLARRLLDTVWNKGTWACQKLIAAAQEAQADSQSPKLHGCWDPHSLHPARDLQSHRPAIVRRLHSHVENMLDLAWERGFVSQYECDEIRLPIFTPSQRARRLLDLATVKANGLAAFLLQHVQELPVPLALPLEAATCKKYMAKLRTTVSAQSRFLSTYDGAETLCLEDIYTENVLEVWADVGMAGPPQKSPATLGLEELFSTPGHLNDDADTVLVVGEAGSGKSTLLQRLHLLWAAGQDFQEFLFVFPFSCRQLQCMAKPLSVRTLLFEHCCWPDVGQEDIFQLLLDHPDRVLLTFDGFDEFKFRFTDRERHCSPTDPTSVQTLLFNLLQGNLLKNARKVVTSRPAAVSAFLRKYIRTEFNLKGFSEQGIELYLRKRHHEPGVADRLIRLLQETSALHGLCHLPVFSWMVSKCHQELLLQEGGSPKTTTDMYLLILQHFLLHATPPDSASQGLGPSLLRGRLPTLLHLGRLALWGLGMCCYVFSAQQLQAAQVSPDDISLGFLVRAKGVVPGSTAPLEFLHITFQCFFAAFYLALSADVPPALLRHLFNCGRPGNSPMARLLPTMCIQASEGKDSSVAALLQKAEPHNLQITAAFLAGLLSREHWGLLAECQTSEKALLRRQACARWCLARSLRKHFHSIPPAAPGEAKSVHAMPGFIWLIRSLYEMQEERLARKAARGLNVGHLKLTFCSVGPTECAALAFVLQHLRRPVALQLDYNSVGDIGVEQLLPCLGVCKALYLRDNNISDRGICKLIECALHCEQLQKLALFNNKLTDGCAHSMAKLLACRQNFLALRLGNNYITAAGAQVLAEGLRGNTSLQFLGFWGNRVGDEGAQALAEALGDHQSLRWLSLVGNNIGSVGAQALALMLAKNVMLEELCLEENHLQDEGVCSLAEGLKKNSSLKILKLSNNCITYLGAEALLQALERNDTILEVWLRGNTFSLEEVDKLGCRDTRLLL

Kd ([1]; Fig 6E, one representative experiment, read-out: Kd (NOD2/ligand)): 5.36 ± 1.91 µM
Kd ([1]; Fig EV5C, purified NOD2, read-out: Kd (NOD2/ligand)): 3.19 ± 1.97 µM
Kd ([1]; Kd value of S1P interacting with NOD2, as stated in text): ~5 µM
Kd ([1]; Kd(NOD2: S1P), Fig 7D, S1P alone): 2.4 ± 0.38 µM
Kd ([2]; Kd value of NOD1 H517A with S1P): ~15 µM
Kd ([2]; Kd(NOD1 H517A: S1P), Fig 7E): 13.7 ± 6.1 µM
SMILES: CCCCCCCCCCCCC/C=C/[C@@H](O)[C@@H](N)COP(=O)(O)O [S1P, sphingosine‐1‐phosphate]
Oligomerization of NOD1/2 [3]: oligomerization of NOD1/2 induced
